From patent US9232793B2, “Methods of inhibiting microbial growth using deoxyaldohexoses” (LVMH Recherche, priority 2008, dated 2016)

What was measured:
Assay in all cases: Agar diffusion antimicrobial test, MIC determination
Assay type in all cases: cell-based
[1] = tested on: Aspergillus niger IP 1431.83; conditions: A. niger
Procedure: (§1) The culture medium at pH 6, pH 7 and pH 8, inoculated beforehand with the test strains, is poured into Petri dishes, with one pH and one strain per dish. After solidification, 100 μl are deposited for each of the concentrations of the test substance, as well as a solvent control and a positive control. After incubation, the inhibition diameter is measured after diffusion of the test product into the agar, and there is deduced therefrom the minimum bacteriostatic concentration (MIC), which is the lowest concentration of product inhibiting the multiplication of the microbes. The test strains are the following: • Aspergillus niger IP 1431.83, • Candida albicans IP 48.72, • Enterococcus hirae CIP 58.55, • Staphylococcus aureus CIP 4.83, • Burkholdena cepacia CIP 103924, • Pseudomonas aeruginosa CIP 82.1118. For each strain, 120 ml of each of the three Mueller Hinton media pH 6, pH 7 and pH 8 are inoculated with 1.2 ml of each suspension of microbe having a titre of 10^7 CFU/ml in order to obtain a titre equal to 10^5 CFU/ml. 15 ml are poured into each dish, with one dish per medium and per strain. After solidification, three steel cylinders are placed at the surface of each dish. 100 mg (approximately) of the powder consisting of the test alkyl glycoside are taken up in 1 ml of methanol (solution A at 10%). Next, the concentration range is prepared as described below: • Solution B1 at 1%: 300 μl of solution A+2.7 ml of sterile water, • Solution B2 at 0.5%: 300 μl of solution A+5.7 ml of sterile water, • Solution B3 at 0.1%: 1 ml of solution B1+9 ml of sterile water, • Solution B4 at 0.05%: 1 ml of solution B2+9 ml of sterile water. Only solutions B2, B3 and B4 are tested during the trial. 100 μl (pH 6, pH 7 and pH 8) of the following solutions are introduced into each cylinder: • Methanol control (prepared for each strain at pH 7), • Solution B4 at 0.05%, • Solution B3 at 0.1%, • Solution B2 at 0.5%. Incubation at 37° C.±1° C. for 24 hours (48 h for Enterococcus hirae). The inhibition of growth of the microbes leads to measurement, using a vernier caliper, in millimeters, of an inhibition diameter after diffusion of the test product into the agar. The minimum bacteriostatic concentration (MIC) is given by the lowest concentration of product which inhibits the multiplication of the microbes. In the case where the highest concentration ([…]) is not active, this is noted (>500). The tests were carried out on various strains at pH 7, for alkyl glycoside concentrations equal to 0.05%, 0.1% and 0.5% by weight.

[2] = tested on: Burkholdena cepacia CIP 103924; conditions: B. cepacia
Procedure: as §1

[3] = tested on: Candida albicans IP 48.72; conditions: C. albicans
Procedure: as §1

[4] = tested on: Enterococcus hirae CIP 58.55; conditions: E. hirae
Procedure: as §1

[5] = tested on: Pseudomonas aeruginosa CIP 82.1118; conditions: P. aeruginosa
Procedure: as §1

[6] = tested on: Staphylococcus aureus CIP 4.83; conditions: S. aureus
Procedure: as §1

Row | SMILES | MIC ([1]; pH 7) [µg/mL] | MIC ([1]; pH 7, value in brackets) [µM] | MIC ([2]; pH 7) [µg/mL] | MIC ([2]; pH 7, value in brackets) [µM] | MIC ([3]; pH 7) [µg/mL] | MIC ([3]; pH 7, value in brackets) [µM] | MIC ([4]; pH 7) [µg/mL] | MIC ([4]; pH 7, value in brackets) [µM] | MIC ([5]; pH 7) [µg/mL] | MIC ([5]; pH 7, value in brackets) [µM] | MIC ([6]; pH 7) [µg/mL] | MIC ([6]; pH 7, value in brackets) [µM]
1 | CCCCCCCCO[C@H]1O[C@@H](C)[C@@H](O)[C@@H](O)[C@@H]1O [Fuc-8, octyl beta-L-fucoside] | 50 | 181 | > 500 | > 1810 | 100 | 362 | 50 | 181 | > 500 | > 1810 | 50 | 181
2 | CCCCCCCCCCCCO[C@H]1O[C@@H](C)[C@@H](O)[C@@H](O)[C@@H]1O [Fuc-12, dodecyl beta-L-fucoside] | 50 | 150 | > 500 | > 1500 | > 500 | > 1500 | 50 | 150 | > 500 | > 1500 | 50 | 150
3 | CCCCCCCCOC1O[C@@H](C)[C@H](O)[C@@H](O)[C@H]1O (stereo partly drawn) [Rha-8, octyl L-rhamnoside] | 50 | 181 | 100 | 362 | 100 | 362 | 50 | 181 | 100 | 362 | 50 | 181
4 | CCCCCCCCCCCCOC1O[C@@H](C)[C@H](O)[C@@H](O)[C@H]1O (stereo partly drawn) [Rha-12, dodecyl L-rhamnoside] | 50 | 150 | 100 | 301 | 50 | 150 | 50 | 150 | 50 | 150 | 50 | 150
